From PubChem BioAssay (NCI)
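Cells were grown in 96-well plates and exposed to each compound for 48 hours at five concentrations; endpoints were interpolated linearly between bracketing concentrations, or set to the highest concentration if not reached. At the GI50, growth is halved. TGI denotes the concentration required for complete inhibition of growth.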

Tests used:
Experiment in all cases: inhibition of tumour cell growth, NCI panel, 48 h
[1] = tested on: A549 NSCLC
[2] = tested on: MDA-MB-435
[3] = tested on: MOLT-4 leukemia
[4] = tested on: HT29 colon
[5] = tested on: OVCAR-4 ovarian
[6] = tested on: MDA-MB-231 breast
[7] = tested on: OVCAR-8 ovarian
[8] = tested on: HOP-62 NSCLC
[9] = tested on: MCF7 breast
[10] = tested on: NCI-H522 lung

| SMILES | GI50 [1] | TGI [1] | GI50 [2] | TGI [2] | GI50 [3] | TGI [3] | GI50 [4] | TGI [4] | GI50 [5] [µM] | TGI [5] [µM] | GI50 [6] | TGI [6] | GI50 [7] | TGI [7] | GI50 [8] | TGI [8] | GI50 [9] | TGI [9] | GI50 [10] [µM] | TGI [10] [µM] |
| --- | --- | --- | --- | --- | --- | --- | --- | --- | --- | --- | --- | --- | --- | --- | --- | --- | --- | --- | --- | --- |
| CCN1Cc2nc3sc(C)c(C)c3c(=O)n2C=C1C | 38.5 µM | > 100 µM | 6.48 µM | 39.1 µM | 2.46 µM | 8.7 µM | 3.9 µM | 15.8 µM | 11.8 | > 100 | 8.14 µM | 24.7 µM | 4.83 µM | 25.3 µM | 16.4 µM | 75.1 µM | 3.94 µM | 53.3 µM |  |  |
| CCNC(=O)O/N=C1\CCC2[C@@H]3CC=C4C[C@@H](OC5CCCCO5)CC[C@]4(C)C3CC[C@]12C (some centres not stated) |  | 64.2 µM |  |  |  | 3.87 µM |  | 13.3 µM |  |  |  |  |  | 18.2 µM |  | > 100 µM |  |  |  |  |
| CC(=O)[CH-]C(=O)c1ccccc1.CC(=O)[CH-]C(=O)c1ccccc1.C[C@]12CCC(=O)C=C1CC[C@@H]1C2CC[C@@]2(C)C1CC[C@@H]2[O-].C[C@]12CCC(=O)C=C1CC[C@@H]1C2CC[C@@]2(C)C1CC[C@@H]2[O-].Cl.[Ti+4] (some centres not stated) | 18.4 µM | 43.9 µM |  |  | 35.3 µM | > 100 µM | 17.5 µM | 37.2 µM | 23.4 | > 100 |  |  | 22.6 µM | 93.6 µM | 20.6 µM | 59.9 µM |  |  | 13.6 | 34.8 |
| COc1ccc(/C=C2\C=C(c3ccccc3)N(CCc3ccccc3)C2=O)cc1OC | 5.06 µM | 17.7 µM | 4.78 µM | > 100 µM |  |  | 8.92 µM | 48.9 µM | 3.15 | 87 | 4.16 µM | 17.9 µM | 6.09 µM | 22.5 µM | 2.72 µM |  | 4.18 µM | 57.2 µM | 9.8 | 36 |
| Cc1ccc(S(=O)OCC23CC4CC(CC(C4)C2)C3)cc1 (configuration not stated) |  | > 100 µM |  |  |  | > 100 µM |  | > 100 µM |  | > 100 |  |  |  | > 100 µM |  | > 100 µM |  |  |  | > 100 |
| COc1ccc2nc3cc(Cl)ccc3c(Sc3ccc([N+](=O)[O-])cc3)c2c1 | > 100 µM | > 100 µM |  |  | > 100 µM | > 100 µM |  | > 100 µM | > 100 | > 100 |  |  | > 100 µM | > 100 µM | > 100 µM | > 100 µM |  |  | > 100 | > 100 |
| CC(=O)NC1C(OCc2ccccc2)OC(COC(=O)CCCCCCCCCCNc2ccc([N+](=O)[O-])c3[nH]c4ccccc4c(=O)c23)C(O)C1OC(C)C(=O)NC(C)C(=O)NC(CCC(N)=O)C(=O)OCc1ccccc1 (configuration not stated) |  | > 100 µM |  |  |  | > 100 µM |  | > 100 µM |  | > 100 |  |  |  | > 100 µM |  | > 100 µM |  |  |  | > 100 |
| CS(=O)(=O)CC(=O)c1ccccc1 |  | > 100 µM |  | > 100 µM |  | > 100 µM |  | > 100 µM |  | > 100 |  |  |  | > 100 µM |  | > 100 µM |  | > 100 µM |  | > 100 |
| O=C(COC(=O)c1cccc2c(=O)c3ccccc3[nH]c12)Nc1ccc(C(=O)O)cc1 |  | > 100 µM |  |  |  | > 100 µM |  | > 100 µM |  | > 100 |  |  |  | > 100 µM |  | > 100 µM |  |  |  | > 100 |
| COC1=CC(c2ccc[nH]2)=N/C1=C\c1[nH]c(C)c(C(=O)CCCCC(=O)Oc2ccc3c(c2)CCC2C3CC[C@]3(C)[C@@H](O)CC[C@@H]23)c1C (some centres not stated) | 6.58 µM | > 100 µM | 5.47 µM | > 100 µM | 5.02 µM | > 100 µM |  |  | 9.44 | > 100 | 2 µM | 8.04 µM | > 100 µM | > 100 µM | 17.3 µM | > 100 µM | 0.863 µM | > 100 µM |  |  |
| COc1cc([N+](=O)[O-])c(OC)cc1-c1nc2sc(Cl)cn2c1/C=N/NC1=NCCN1 |  |  | 3.65 µM | > 100 µM |  |  | 0.269 µM |  |  |  | 1.49 µM | 3.18 µM |  |  | 1.2 µM | 2.53 µM | 0.431 µM | > 100 µM | 2.93 | > 29.7 |
| NCC1OC(OC2C(CO)OC(OC3C(O)C(N)CC(N)C3OC3OC(CO)C(O)CC3N)C2O)C(N)C(O)C1OC1OC(CO)C(O)C(O)C1O (configuration not stated) | > 50 µg/mL | > 50 µg/mL | > 50 µg/mL | > 50 µg/mL | > 50 µg/mL | > 50 µg/mL | > 50 µg/mL | > 50 µg/mL |  |  | > 50 µg/mL | > 50 µg/mL | > 50 µg/mL | > 50 µg/mL | > 50 µg/mL | > 50 µg/mL | > 50 µg/mL | > 50 µg/mL |  |  |
| Clc1cc(Cl)cc(N2N=C(c3cccc(Nc4ccncc4)c3)CC2c2ccc3c(c2)OCO3)c1 (configuration not stated) |  |  | 1.62 µM | 3.09 µM | 1.88 µM | 4.49 µM | 2.14 µM | 4.72 µM | 1.65 | 3.18 | 1.37 µM | 2.72 µM |  |  | 1.79 µM | 3.64 µM | 1.89 µM | 4.17 µM |  |  |
| OCc1c[te]c(-c2ccccc2)c1 |  | > 100 µM |  |  |  | > 100 µM |  |  |  | > 100 |  |  |  | > 100 µM |  | > 100 µM |  |  |  |  |
| NN1C(=O)C(CCO)S/C1=N/N=C1/SC(CCO)C(=O)N1N (configuration not stated) |  | > 100 µM |  |  |  | > 100 µM |  | > 100 µM |  | > 100 |  |  |  | > 100 µM |  | > 100 µM |  |  |  | > 100 |
| COC(=O)C(Cc1nc2ccccc2nc1C)/C(=N\NC(N)=O)C(=O)Nc1cccc([N+](=O)[O-])c1 (configuration not stated) |  | > 100 µM |  |  |  | > 100 µM |  | > 100 µM |  | > 100 |  |  |  | > 100 µM |  | > 100 µM |  |  |  | 27.3 |
| Cc1ccccc1-n1c2nc(=O)n(C)c(=O)c-2nc2ccccc21 |  | 35.4 µM |  |  |  | 39.7 µM |  | 14.3 µM |  | 26.6 |  |  |  | 33.6 µM |  | > 100 µM |  |  |  | 29.4 |
| NCCNCc1c2ccccc2c(CNCCN)c2ccccc12 |  | 38.7 µM |  |  |  | 30.9 µM |  | > 100 µM |  |  |  |  |  | 60.3 µM |  | 69.3 µM |  |  |  | 21.2 |
| CC1=CC(N2C(=O)C(C)=CC2O)NC1=O (configuration not stated) |  | > 100 µM |  |  |  |  |  | > 100 µM |  | > 100 |  |  |  | > 100 µM |  | > 100 µM |  |  |  | > 100 |
